The species named for test [1] is Cavia porcellus. Kind of test: Inhibition of the twitch response of the guinea pig longitudinal muscle strip to electrical stimulation in a concentration-dependent manner. The class given is functional, Muscle tissue.
For test [2], the species on record is Cavia porcellus. Kind of test: Inhibition of the twitch response of the guinea pig ileal strip to electrical stimulation. Type of test: functional. As to conditions: read-out: pA2 (converted).

`CN1CC[C@]23c4c5ccc(O)c4O[C@H]2[C@@H](O)C=C[C@H]3[C@H]1C5` [MORPHINE] had a pD2 in the test filed under Cavia porcellus [1] of 7.23 M. Still for that read-out and setting: the result for `CC(=O)Oc1ccc2c3c1O[C@H]1[C@H](SC(C)=O)C=CC4[C@@H](C2)N(CC2CC2)CC[C@@]341` (some centres undefined) reads 8.4 M. `CC(=O)Oc1ccc2c3c1O[C@H]1[C@H](SC(C)=O)CCC4[C@@H](C2=O)N(CC2CC2)CC[C@@]341` (some centres undefined) yielded a pD2 in the test filed under Cavia porcellus [1] of 9.03 M. In addition, the Kb in the test filed under Cavia porcellus [2] is 0.0355 nM.

The values are drawn from ChEMBL document CHEMBL1151586, “Design and synthesis of 10-oxo derivative of N-cyclopropylmethyl ()-6-acetylthiodihydro-normorphine, a potentially -selective opioid receptor ligand” (Bioorg Med Chem Lett, 1995).
